What was measured:
Assay type in all cases: cell-based
[1] = system: CCRF-CEM cancer cells - leukemia; assay: Fluorometric Microculture Cytotoxicity Assay (FMCA), CCRF-CEM; conditions: Homo sapiens, 72 h incubation
Source text: (§1) The Fluorometric Microculture Cytotoxicity Assay, FMCA (Larsson, R., et al.; Anticancer Res, 1989, 9, 1111-1119), is a three day non-clonogenic microplate-based cell viability assay used for measurement of the cytotoxic and/or cytostatic effect of compounds in vitro (Lindhagen, E. et al.; Nat. Protoc., 2008, 3, 1364-1369). FMCA represents a valuable method to measure cytotoxicity in a number of cell types, both cell lines and primary cells from patients (Larsson, R., et al.; Int. J. Cancer, 1992, 50, 177-185; Fridborg, H., et al.; Eur. J. Cancer, 1999. 35, 424-432; Dhar, S., et al.; Br. J. Cancer, 1996, 74, 888-896).
(§2) FMCA is based on the principle that fluorescein diacetate (FDA) is converted to the fluorescent probe fluorescein by esterases in the plasma membranes of living cells. For experiments, 96 or 384-well microplates are prepared with compounds and stored at −70° C. until use. Cells are then seeded into the drug-prepared plates and placed in an incubator for 72 h. On the last day of incubation, the plates are washed and a buffer containing FDA is added and incubated with the cells for 45 minutes. Finally the fluorescence per well is measured in a fluorometer and a Survival Index % (SI) for each compound-treated well is calculated with the equation: Compound-treated cells minus blank divided by control cells minus blank. A high SI-value indicates a large percentage of living cells and vice versa.
In subsequent experiments, compounds were tested, along with a number of approved cancer drugs (dasatinib, pazopanib, sorafenib, and sunitinib) as described above. Initially, the acute lymphoblastic leukemia cell line CCRF-CEM was used throughout. In the assay plates, medium was added to six empty wells (blank wells) and wells were filled with PBS and cell suspension and served as control wells. SI-values were then calculated for each compound-treated well as described above. All experiments were conducted twice and a new batch of plates was prepared for each experiment.
(§3) For dose-response experiments, 384-well plates were prepared as follows:
(§4) Compounds of the invention as well comparative kinase inhibitors sorafenib sunitinib, dasatinib, pazopanib and a reference compound disclosed in WO 2009/071535 (compound #107) were diluted with PBS to a concentration ten-times higher than the desired starting concentration. Then, a Biomek 2000 liquid handling system was employed to serially dilute the compounds in a deep-well 384-well plate. From this plate, assay plates containing 5 μl compound per well were prepared with the Biomek 2000. Certain compounds precipitated when diluted with PBS, and these compounds were therefore prepared in a 96-well plate manually as described above using culture medium RPMI 1640 instead of PBS.
(§5) The compounds were also tested at five concentrations, with five times serial dilution on the following cell types: CCRF-CEM, hTERT-RPE1 (normal retinal epithelial cells), hRPTEpiC (normal renal cells), and peripheral blood mononuclear cells (PBMC). Each experiment was performed three times, except for PBMC and hRPTEpiC, which were performed twice. SI-values were calculated, graphs were plotted using GraphPadPrism 5.0 (GraphPad Software Inc. La Jolla, Calif.) and IC50-values for each cell type and compound were determined from the curves.

[2] = system: CEM/VM1 (teniposide-resistant leukemia); assay: FMCA, CEM/VM1; conditions: Homo sapiens, CEM/VM1 teniposide-resistant leukemia cells
Source text: as §1, §2, §3, §4, §5
(§6) The compounds of the invention were also tested on further cancer cell lines related to breast cancer (MDA-MB-231; see e.g. Cailleau, R., et al.; J. Natl. Cancer Inst., 1974, 53, 661-674), teniposide-resistant leukemia (CEM/VM1 see e.g. Danks, M., et al.; Cancer Res., 1987, 47, 1297-1301), leukemia (HL-60; see e.g. Collins, S., et al.; Nature, 1977, 270, 347-349), doxorubicin-resistant lung cancer (H69AR; see e.g. Mirski, S., et al.; Cancer Res., 1987, 47, 2594-2598), myeloma (RPMI 8226; see e.g. Matsuoka, Y., et al.; Proc. Soc. Exp. Biol. Med., 1967, 125, 1246-1250), doxorubicin-resistant myeloma (8226/Dox40; see e.g. Dalton, W., et al.; Blood, 1989, 15, 747-752), lymphoma (U-937, see e.g. Sundström, C., et al.; Int. J. Cancer, 1976, 17, 565-577), vincristin-resistant lymphoma (U-937-vcr; see e.g. Botling, J., et al.; Int. J. Cancer, 1994, 58, 269-274), ovarian cancer (A2780; see e.g. Hamilton, T., et al.; Semin. Oncol., 1984, 11, 285-298), doxorubicin-resistant ovarian cancer (A2780/Adr), cisplatin-resistant ovarian cancer (A2780/Cis; see e.g. Behrens, B., et al. Cancer Res. 1987, 47, 414-418), pancreatic cancer (PANC-1, BxPC-3, and MIA PaCa-2; see e.g. Lieber, M., et al.; Int. J. Cancer, 1975, 15, 741-747; Loor, R., et al.; Clin. Lab. […]

[3] = system: H69AR (doxorubicin-resistant lung cancer); assay: FMCA, H69AR; conditions: Homo sapiens, H69AR doxorubicin-resistant lung cancer cells
Source text: as §1, §2, §3, §4, §5, §6

RPMI 8226 (myeloma) = assay: FMCA, RPMI 8226; conditions: Homo sapiens, RPMI 8226 myeloma cells
Source text: as §1, §2, §3, §4, §5, §6

[4] = system: 8226/Dox40 (doxorubicin-resistant myeloma); assay: FMCA, 8226/Dox40; conditions: 8226/Dox40 doxorubicin-resistant myeloma cells
Source text: as §1, §2, §3, §4, §5, §6

U-937 (lymphoma) = assay: FMCA, U-937; conditions: Homo sapiens, U-937 lymphoma cells
Source text: as §1, §2, §3, §4, §5, §6

[5] = system: U-937-vcr (vincristin-resistant lymphoma); assay: FMCA, U-937-vcr; conditions: U-937-vcr vincristin-resistant lymphoma cells
Source text: as §1, §2, §3, §4, §5, §6

A2780 (ovarian cancer) = assay: FMCA, A2780; conditions: Homo sapiens, A2780 ovarian cancer cells
Source text: as §1, §2, §3, §4, §5, §6

[6] = system: A2780/Adr (doxorubicin-resistant ovarian cancer); assay: FMCA, A2780/Adr; conditions: A2780/Adr doxorubicin-resistant ovarian cancer cells
Source text: as §1, §2, §3, §4, §5, §6

[7] = system: A2780/Cis (cisplatin-resistant ovarian cancer); assay: FMCA, A2780/Cis; conditions: A2780cis, A2780/Cis cisplatin-resistant ovarian cancer cells
Source text: as §1, §2, §3, §4, §5, §6

SMILES	EC50 [1] [nM]	EC50 [2] [nM]	EC50 [3] [nM]	EC50 (RPMI 8226 (myeloma)) [nM]	EC50 [4] [nM]	EC50 (U-937 (lymphoma)) [nM]	EC50 [5] [nM]	EC50 (A2780 (ovarian cancer)) [nM]	EC50 [6] [nM]	EC50 [7] [nM]
COc1ccc2[nH]cc(CCNc3nc(C)cc(Nc4ccc5[nH]c(C)cc5c4)n3)c2c1 [Example 27, N^2-[2-(5-methoxy-1H-indol-3-yl)ethyl]-6-methyl-N^4-(2-methyl-1H-indol-5-yl)pyrimidine-2,4-diamine]	19	44	63	110	300	41	62	74	440	62
COc1ccc2[nH]cc(CCNc3nccc(Nc4ccc5[nH]c(C)c(C)c5c4)n3)c2c1 [Example 14, N^4-(2,3-dimethyl-1H-indol-5-yl)-N^2-[2-(5-methoxy-1H-indol-3-yl)ethyl]pyrimidine-2,4-diamine]	21	51	200	210	280	73	44	110	440	63

From US9006241B2, “Pyrimidine derivatives” (Noviga Research AB, priority 2011, dated 2015)
